According to BindingDB's records for doi:10.1021/acsmedchemlett.8b00220 (Merck, 2018):

Key:
[1] = Inhibition of CYP3A4 (unknown origin) co-incubated with substrate
[2] = Inhibition of CYP3A4 (unknown origin) preincubated followed by substrate addition

In the case of CS[C@@]1(C(=O)Nc2ccc3[nH]nc(-c4ccc(F)cc4)c3c2)CCN(CC(=O)N2CC=C(c3ccc(-c4ncccn4)cc3)CC2)C1 [US8546404, 613], the IC50 [1] is reported as over 30000 nM and the IC50 [2] is reported as 2000 nM.
